Results on four compounds are retold here after BindingDB's records for PubMed 1987453 (Georgetown University, 1991).

Some results are limits rather than exact numbers.

The target in this assay is Nicotinic acetylcholine receptor (Rattus leucopus, UniProt Q62594).
Nicotinic acetylcholine receptor, sequence (Q62594 whole entry): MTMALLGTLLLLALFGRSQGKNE
For orientation: Ki means a dissociation constant, usually derived from enzyme kinetics or from competition with a known ligand. The low end stands for higher affinity, the high end for lower affinity. Consider `CNC(=O)Oc1ccc2c(c1)[C@]1(C)CCN(C)C1N2C` (some centres undefined), for which the Ki is over 10 µM.
Next, `C=C(C=O)C[C@H]1C[C@H](O)[C@]2(C)O[C@@H]3C[C@@H]4O[C@@H]5C[C@]6(C)O[C@]7(C)CC[C@@H]8O[C@@H]9C[C@]%10(C)O[C@@H]%11C(C)=CC(=O)O[C@H]%11C[C@H]%10O[C@H]9C[C@@H](C)[C@H]8O[C@H]7C[C@H]6O[C@@]5(C)C/C=C\[C@H]4O[C@H]3C[C@H]2O1`: 2 µM.
Under `CN1[C@@H]2CC[C@H]1CC(OC(=O)[C@H](CO)c1ccccc1)C2` (some centres undefined) [CAS_51-55-8] stands over 10 µM; under `COc1cc2c3cc1Oc1cc(ccc1O)CC1c4c(cc(OC)c(O)c4Oc4ccc(cc4)CC3[N+](C)(C)CC2)CC[N+]1(C)C` (centres undefined) [CAS_8063-06-7], over 10 µM.
